Source: ChEMBL document CHEMBL4177663, “Discovery and structure-activity relationship study of 1,3,6-trisubstituted 1,4-diazepane-7-ones as novel human kallikrein 7 inhibitors” (Bioorg Med Chem Lett, 2017)
pIC50: −log10 of the molar value.

Experiments:
Kallikrein-7 = Kallikrein-7 (Homo sapiens, UniProt P49862); assay: Inhibition of thermolysin activated recombinant human C-terminal 10-His tagged KLK7 preincubated for 10 mins followed by MOCAc-Arg-Pro-Lys-Pro-Val-Glu-Nva-Trp-Arg-Lys(Dnp)-NH2 peptide substrate addition measured after 30 mins by fluorescence analysis
Kallikrein-7, sequence (P49862 whole entry): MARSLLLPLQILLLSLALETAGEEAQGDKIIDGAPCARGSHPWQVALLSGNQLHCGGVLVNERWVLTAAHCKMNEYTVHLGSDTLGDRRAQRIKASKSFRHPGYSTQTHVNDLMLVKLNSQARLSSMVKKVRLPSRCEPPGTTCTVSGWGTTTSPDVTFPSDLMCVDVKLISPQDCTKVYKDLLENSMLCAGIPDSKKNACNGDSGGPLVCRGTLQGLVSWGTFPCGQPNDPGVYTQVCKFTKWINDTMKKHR

Trypsin = Trypsin (Homo sapiens, UniProt P07477+P07478+P35030); assay: Inhibition of human trypsin preincubated for 10 mins followed by Boc-Gln-Ala-Arg-MCA peptide substrate addition measured after 30 mins by fluorescence analysis; type: protein assay
[1] = Inhibition of human chymotrypsin preincubated for 10 mins followed by Suc-Ala-Ala-Pro-Phe-MCA peptide substrate addition measured after 30 mins by fluorescence analysis
Kallikrein-5 = molecular target: T1, Kallikrein-5 (Homo sapiens, UniProt Q9Y337); assay: Inhibition of recombinant human C-terminal 10-His tagged KLK5 preincubated for 10 mins followed by Boc-Val-Pro-Arg-MCA peptide substrate addition measured after 30 mins by fluorescence analysis
T1 sequence (Q9Y337 whole entry): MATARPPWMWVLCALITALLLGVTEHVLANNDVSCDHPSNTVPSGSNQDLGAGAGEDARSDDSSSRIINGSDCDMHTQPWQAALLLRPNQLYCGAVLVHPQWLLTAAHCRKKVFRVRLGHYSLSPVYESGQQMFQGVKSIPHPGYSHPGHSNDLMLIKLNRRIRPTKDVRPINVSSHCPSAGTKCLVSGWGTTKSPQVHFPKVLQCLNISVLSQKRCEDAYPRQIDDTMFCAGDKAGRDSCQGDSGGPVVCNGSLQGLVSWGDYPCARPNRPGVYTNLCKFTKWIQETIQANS

SMILES | pIC50 (Kallikrein-7) | IC50 (Trypsin) [µM] | pIC50 [1] | pIC50 (Kallikrein-5)
COc1ccc(Cl)cc1C[C@@H]1CN/C(=N\N(C)C)CN(CC(=O)Nc2ccc(C(=O)O)cc2)C1=O | 4.52 |  |  | 
COc1ccc(Cl)cc1C[C@@H]1CN/C(=N\N(C)C)CN(CC(=O)Nc2ccccc2C(=O)O)C1=O | < 4.52 |  |  | 
COc1ccc(Cl)cc1C[C@H]1CN/C(=N\Oc2cc(F)cc(F)c2)CN(CC(=O)Nc2ccc(O)c(C(=O)O)c2)C1=O | < 4.52 |  |  | 
COc1ccc(Cl)cc1C[C@@H]1CNC(=O)CN(CC(=O)Nc2ccc(O)c(C(=O)O)c2)C1=O | < 4.52 |  |  | 
COc1ccc(Cl)cc1C[C@@H]1CN/C(=N\O)CN(CC(=O)Nc2cccc(C(=O)O)c2)C1=O | < 4.52 |  |  | 
COc1ccc(Cl)cc1C[C@@H]1CN/C(=N\OCC(C)C)CN(CC(=O)Nc2cccc(C(=O)O)c2)C1=O | < 4.52 |  |  | 
CO/N=C1/CN(CC(=O)Nc2cccc(C(=O)O)c2)C(=O)[C@H](Cc2cc(Cl)ccc2OC)CN1 | 4.85 |  |  | 
COc1ccc(Cl)cc1C[C@@H]1CN/C(=N\N(C)C)CN(CC(=O)Nc2ccccn2)C1=O | 4.80 |  |  | 

The next compounds have a higher pIC50 (Kallikrein-7) than those just listed; values first:

pIC50 (Kallikrein-7) | IC50 (Trypsin) [µM] | pIC50 [1] | pIC50 (Kallikrein-5) | SMILES
5.24 |  |  |  | COc1ccc(Cl)cc1C[C@@H]1CN/C(=N\Oc2cc(F)cc(F)c2)CN(CC(=O)Nc2ccc(O)c(C(=O)O)c2)C1=O
4.89 |  |  |  | CCO/N=C1/CN(CC(=O)Nc2cccc(C(=O)O)c2)C(=O)[C@H](Cc2cc(Cl)ccc2OC)CN1
5.72 | > 30 | 4.52 | < 4.52 | COc1ccc(Cl)cc1C[C@@H]1CN/C(=N\N(C)C)CN(CC(=O)Nc2cccc(C(=O)O)c2)C1=O.Cl
5.27 |  |  |  | COc1ccc(Cl)cc1C[C@@H]1CN/C(=N\Oc2c(F)cccc2F)CN(CC(=O)Nc2cccc(C(=O)O)c2)C1=O
5.35 |  |  |  | COc1ccc(Cl)cc1C[C@@H]1CN/C(=N\N(C)C)CN(CC(=O)Nc2ccccc2)C1=O
5.05 |  |  |  | COc1ccc(Cl)cc1C[C@@H]1CN/C(=N\N(C)C)CN(CC(=O)Nc2cccnc2)C1=O
6.09 | > 30 | 4.62 | < 4.52 | COc1ccc(Cl)cc1C[C@@H]1CN/C(=N\N(C)C)CN(CC(=O)Nc2cccc(S(C)(=O)=O)c2)C1=O
